The values below come from patent US9121806B1, “Impedance spectroscopy-based cellular analysis device” (University of South Florida, priority 2007, dated 2015).

This assay has as its system OvCa429 cells. The assay can be described thus: Effect of trypsin on confluent OvCa429 cell culture monitored by impedance phase angle mapping. It is filed as cell-based. The conditions noted are these: 20 μl of trypsin added to culture medium after 5 h of monitoring, approximately 80% confluence, monitored over 18 h. The procedure:
Ovarian cancer line OvCa429 were grown in M199 and MCDB 105 (1:1) (Sigma, St Louis, Mo.) supplemented with 10% fetal calf serum (Sigma), 2 mM L-glutamine, 100 units ml-1 penicillin and 100 μgml-1 streptomycin under 5% CO2, and 37 .C high-humidity atmosphere. The cell culture medium was changed every 2-3 days, depending on the rate of cell growth. Cells were sub-cultured using 1× trypsin solution directly on the multielectrode device Impedance data were taken at room temperature of about 22° C. After each recording the cells were placed back in to the incubator. The cell culture medium was not changed throughout the course of the experiment. Impedance measurements were recorded on two separate devices (control and variable) beginning at approximately 80% confluence of the OvCa culture. After 5 h of recording measurements at an interval of approximately 1 h, 20 μl of trypsin was added to the cell culture medium of variable. Trypsin was not added to the control. The impedance was recorded under room conditions and the devices were placed back in the incubator after each measurement frame.
In order to affirm the utility of impedance mapping for tracking physiological changes, the effect of trypsin on the confluent cell culture was analyzed. […] FIG. 6 is the phase angle mapping of control and trypsinized cultures monitored over a period of 18 h.

For the substance trypsin, the “effect of trypsin on the confluent cell culture (phase angle shape / cell detachment)” value was “detached the cells from the substrate”.
